Patent publication US11964984B2, “TXNIP-TRX complex inhibitors and methods of using the same” (CITY OF HOPE, priority 2020, dated 2024)

Legend:
SOD1 mRNA = SOD1 mRNA in primary human pancreatic islets under 25 mM glucose (RT-PCR); type: cell-based; details: human pancreatic islets (500 IEQ), 2.5 uM, 48 h
Description: (§1) FIGS. 12A-12B. […] Human pancreatic islets (500 IEQ) were cultured with PIM(R) (Prodo Labs) medium under 25 mM glucose with 2.5 uM of the indicated compounds for 48 h. Total RNA was collected. RT-PCR was performed in triplicate and data shown are the mean±SEM. Statistical analysis was performed using one-way ANOVA: *p<0.0001. […] Human pancreatic islets (500 IEQ) were cultured with PIM(R) (Prodo Labs) under 25 mM glucose with 2.5 uM of the indicated compounds for 48 h. Total RNA was collected. RT-PCR was performed in triplicate and data shown are the mean+SEM. Statistical analysis was performed using one-way ANOVA: *p<0.0001.
(§2) Testing lead compounds in human pancreatic islets. To further explore the effects of the lead compounds as possible therapies in diabetes, we conducted translational studies in primary human pancreatic islets (obtained from the City of Hope islet isolation center).
(§3) RNA extraction and quantitative RT-PCR. RNA was extracted using the Direct-zol™ RNA MiniPrep Plus (Zymo Research). […] Diluted cDNA was quantified using real-time PCR performed with Power SYBR Green qPCR MasterMix (Applied Biosystem) and 7500 real-time PCR system (Applied Biosystems). […]

TXNIP mRNA [1] = assay: TXNIP mRNA in human islets under high glucose plus cytokines; type: cell-based; details: 25 mM glucose + TNFα, IL1β, IFNγ, 40 hours
Description: (§4) FIGS. 18A-18B. C30 and C38 compounds protect cells from apoptosis in human islets. 100 IEQ human islets (Hu 1178) were cultured in PIM(R)© containing NG (5.8 mM glucose) or HG (25 mM glucose), and TNFα (20 ng/ml), IL1β (20 ng/ml), IFNγ (200 ng/ml) for 40 hours with or without lead compounds. Total RNA was prepared and RT PCR performed. FIG. 18A: BCL2/BAX ratios are the mean±SEM from triplicates. Statistical analysis was performed for each column vs. HG, 3 cytokines using one-way ANOVA: *p<0.002. FIG. 18B: TXNIP relative mRNA levels. Data shown are the mean±SEM from triplicates. Statistical analysis was performed for each column vs. HG, 3 cytokines using one-way ANOVA: **p<0.0001.
We mimicked T1D conditions in vitro (25 mM glucose, […], […] and […]) to induced apoptosis in human islets (obtained from the Southern California Islet Cell Resources Center at City of Hope). This high glucose/cytokine cocktail was able to induce apoptosis in cultured human islets as indicated by a decrease in the BCL2/BAX ratio (FIG. 18A).

TNF-α mRNA = TNF-α mRNA expression in THP1 cells under 25 mM glucose (RT-PCR); type: cell-based, human; details: 72 hours, relatively higher concentrations needed than for TXNIP mRNA
Description: FIGS. 2A-2B. FIG. 2A: C30 and C38 inhibited TXNIP mRNA expression in THP1 cells. THP1 cells were cultured under 25 mM glucose with the indicated concentrations of compounds for 72 hours. Cells were then collected for total RNA preparation. RT-PCR was performed, and data shown are the mean±SEM from triplicates. Statistical analysis was performed using one-way ANOVA, *p<0.0001. FIG. 2B: C30 and C38 inhibited TNF-α mRNA expression in THP1 cells. THP1 cells were cultured under 25 mM glucose with various concentrations of compounds as indicated for 72 hours and collected for total RNA preparation. RT-PCR was performed, and data shown are the mean±SEM from triplicates. Statistical analysis was performed using one-way ANOVA: *<0.02; **<0.0001.
Treatment with both agents lead to lower levels of TNF-α mRNA, although this required relatively higher concentrations compared to those that suppressed TXNIP mRNA (see FIG. 2A).
as §3

human islets [2] = assay: Human islet viability by FDA/PI staining under high glucose plus cytokines; type: cell-based; details: HG/cytokine cocktail, 24 hr, 5 uM compound
Description: FIG. 19. Lead compounds enhance viability in human islets and protect them from apoptosis. 200 IEQ human islets (Hu 1183) were cultured in PIM(R)® medium containing NG (5.8 mM glucose) or HG (25 mM glucose), and mixture of TNFα (20 ng/ml), IL1β (20 ng/ml), and IFNγ (200 ng/ml) for 24 hours with or without C30 or C38. Islets were collected, washed with PBS once and stained with FDA and PI for 5 minutes and visualized with a Keyence All-in-One Fluorescence Microscope (BZ-X800E).
Lead compounds increase viability of human islets. […] Fluorescein diacetate/propidium iodide (FDA/PI) staining was employed to assess human islet viability.

human islets [3] = assay: BCL2/BAX ratio (apoptosis marker) in human islets under high glucose plus cytokines; type: cell-based; details: 25 mM glucose + TNFα, IL1β, IFNγ, 40 hours
Description: as §4
In T1D, β-cell death involves necrosis and apoptosis. BCL2 limits BAX/BAK oligomerization, to impede the release of several apoptogenic molecules from mitochondria. Also, BCL2 binds to and inactivates BAX and other pro-apoptotic proteins, thereby inhibiting apoptosis. BAX and BAK disrupt the integrity of the mitochondrial outer membrane to promote apoptotic cell death. As such, the BCL2/BAX ratio is used as a marker of cell susceptibility to apoptosis. High levels of this ratio can serve as an indicator of the resistance of human cells to apoptosis. […]

TXNIP mRNA [4] = assay: TXNIP mRNA in CD14+ monocytes from type 2 diabetic donors (RT-qPCR); type: cell-based, human; details: CD14+ monocytes of T2D donors, 5 uM, 45 hours, ex vivo
Description: FIG. 20. Several lead compounds suppress TXNIP mRNA in T2D monocytes. CD14^+ monocytes were isolated from T2D patient peripheral blood mononuclear cells (PBMCs) and cultured in RPMI 1640 medium with 5 uM of C30 or C38 for 45 hours. Total RNA was collected. RT-PCR was performed in triplicates and data shown are the mean±SEM. Statistical analysis was performed using one-way ANOVA: *p<0.0001.
Anti-inflammatory (protective) effects of lead compounds in monocytes isolated from peripheral blood obtained from type 2 diabetic subjects. In accordance with an approved IRB protocol and our published methods, we isolated CD14+ monocytes from the peripheral blood of two donors with documented type 2 diabetes (T2D). These monocytes were cultured in vitro with vehicle, 5 uM C30 or C38, and levels of human TXNIP transcript assessed by RT-qPCR.

TXNIP mRNA [5] = assay: TXNIP mRNA in primary human pancreatic islets under 25 mM glucose (RT-PCR); type: cell-based; details: human pancreatic islets (500 IEQ), 2.5 uM, 48 h
Description: as §1, §2, §3

Compound	SOD1 mRNA levels (SOD1 mRNA)	TXNIP expression increased during apoptosis (TXNIP mRNA [1])	TNF-α mRNA expression (TNF-α mRNA)	human islet viability (FDA/PI staining) (human islets [2])	BCL2/BAX ratio (human islets [3])	expression of TXNIP (TXNIP mRNA [4])	TXNIP mRNA (TXNIP mRNA [5])
c1ccc(CCNc2ncnc3c2oc2ccccc23)cc1 [Compound C38]	does not alter SOD1 mRNA levels	significantly ameliorated	reduced TNF-α expression	protected human islets from death	significantly increased BCL2/BAX ratios	can inhibit the expression of TXNIP	target TXNIP mRNA
COc1cc(N2CC[C@@H](c3ccc4ccccc4c3)[C@H](O)C2)nc(N)n1 [Compound C30]	does not alter SOD1 mRNA levels	significantly ameliorated	reduced TNF-α expression	protected human islets from death	significantly increased BCL2/BAX ratios	can inhibit the expression of TXNIP	target TXNIP mRNA
